This is an account of results in patent publication US20050239751A1, “Heterocyclic anti-viral compounds comprising metabolizable moieties and their uses” (Rigel Pharmaceuticals, Inc., priority 2004, published 2005).

Bounds are passed on as bounds.

The test system of the first assay is HCV replicon in 5-2 Luc replicon-comprising cells. The assay is described as follows: HCV replicon assay (luciferase; HEPC_REPLICON-LUC). Format: cell-based, Hepatitis C virus. Particulars: Hepatitis C virus; Tables 3-12; 50% reduction in luciferase emission, 5-2 Luc replicon cells; read-out: Replicon (IC50). The text has this:
In one embodiment, the inhibitory activity of the metabolically active agent of the prodrug can be confirmed in a replicon assay that assesses the ability of a test compound to block or inhibit HCV replication in replicon cells. One example of a suitable replicon assay is the liver cell-line Huh 7-based replicon assay described in Lohmann et al., 1999, Science 285:110-113. A specific example of this replicon assay which utilizes luciferase translation is provided in the Examples Section. In one embodiment of this assay, the amount of test prodrug that yields a 50% reduction in translation as compared to a control cell (IC50) may be determined.
The inhibitory activity of certain prodrugs of the invention, which may inhibit HCV translation or replication prior to metablism and/or are metabolized into active agents, was confirmed using an HCV replicon assay. The HCV replicon can include such features as the HCV 5′ untranslated region including the HCV IRES, the HCV 3′ untranslated region, selected HCV genes encoding HCV polypeptides, selectable markers, and a reporter gene such as luciferase, GFP, etc. In the assay, actively dividing 5-2 Luc replicon-comprising cells (obtained from Ralf Bartenschlager; see Lohmann et al., 1999, Science 285:110-113) were seeded at a density of between about 5,000 and 7,500 cells/well onto 96 well plates (about 90 µl of cells per well) and incubated at 37° C. and 5% CO2 for 24 hours. Then, the test prodrug (in a volume of about 10 PI) was added to the wells at various concentrations and the cells were incubated for an additional 24-48 hours before luciferase assay. The media was aspirated from each well and Bright-Glo (Promega, Madison, WI) luciferase assay reagents were added to each well according to the manufacturer's instructions. Briefly, the BrightGlo reagent was diluted 1:1 with PBS and 100 µl of diluted reagent was added to each well. After 5 min of incubation at room temperature, luciferin emission was quantified with a luminometer. In this assay, the amount of test prodrug that yielded a 50% reduction in luciferase emission (IC50) was determined. This IC50 value may represent the antiviral activity of the prodrug itself, the activity of prodrug transformed into its active metabolized form, or a combination of the two.
In TABLES 3 through 12, a value of “+” indicates an IC50 of 10 μM or less in the specified assay; a value of “−” indicates an IC50 of greater than 10 μM in the specified assay.
On the technique in general: In antiviral work, replicon cells carry a viral genome segment that copies itself.
As to `CCOC(=O)[C@H](C)OC(=O)C(Cl)(Cl)C(=O)Nc1cccc(-c2cc(-c3c(Cl)cccc3Cl)no2)c1` [Cpd. 8, 2′,2′-dichloro-2′-(1S-ethoxycarbonyl-1-methylmethyleneoxycarbonyl)-N-[3-[3-(2,6-dichlorophenyl)-5-isoxazoyl]phenyl] acetamide], the IC50 is ≤ 10 µM.

Consider `CC1(C)C2CCC1(C)C(OC(=O)C(Cl)(Cl)C(=O)Nc1cccc(-c3cc(-c4c(Cl)cccc4Cl)no3)c1)C2` [Cpd. 9, 2′,2′-dichloro-2′-[(1S)-endo-borneyloxycarbonyl]-N-[3-[3-(2,6-dichlorophenyl)-5-isoxazoyl]phenyl] acetamide], for which the half-maximal inhibitory concentration (IC50) was ≤ 10 µM. `CC(=O)C(Cl)(Cl)C(=O)Nc1cccc(-c2cc(-c3c(Cl)cccc3Cl)no2)c1` [Cpd. 10]: the IC50 was > 10 µM. As for `CCC(C)OC(=O)C(Cl)(Cl)C(=O)Nc1cccc(-c2cc(-c3c(Cl)cccc3Cl)no2)c1` (centres unmarked) [Cpd. 12, 2′,2′-dichloro-2′-(sec-butoxycarbonyl)-N-[3-[3-(2,6-dichlorophenyl)-5-isoxazoyl]phenyl] acetamide], the IC50 was ≤ 10 µM. On to `O=C(Nc1cccc(-c2cc(-c3c(Cl)cccc3Cl)no2)c1)C(Cl)(Cl)C(=O)OC1CCCCC1` [Cpd. 13, 2′,2′-dichloro-2′-(cyclohexyloxycarbony)-N-[3-[3-(2,6-dichlorophenyl)-5-isoxazoyl]phenyl] acetamide], for which the IC50 was ≤ 10 µM.

Consider `CC(C)(C)COC(=O)C(Cl)(Cl)C(=O)Nc1cccc(-c2cc(-c3c(Cl)cccc3Cl)no2)c1` [Cpd. 14], for which the IC50 is ≤ 10 µM. For `CC(C)(C)OC(=O)C(Cl)(Cl)C(=O)Nc1cccc(-c2cc(-c3c(Cl)cccc3Cl)no2)c1` [Cpd. 15], the IC50 is ≤ 10 µM. Turning to `CC(C)OC(=O)C(Cl)(Cl)C(=O)Nc1cccc(-c2cc(-c3c(Cl)cccc3Cl)no2)c1` [Cpd. 16, 2′,2′-dichloro-2′-(isopropoxycarbonyl)-N-[3-[3-(2,6-dichlorophenyl)-5-isoxazoyl]phenyl] acetamide], the IC50 was ≤ 10 µM. For the compound `COC(=O)C(Cl)(Cl)C(=O)Nc1cccc(-c2cc(-c3c(Cl)cccc3Cl)no2)c1` [Cpd. 18], the IC50 was ≤ 10 µM. As to `COC(=O)C(Cl)(Cl)C(=O)Nc1cccc(-c2cc(-c3c(C4CC4)cccc3C(F)(F)F)no2)c1` [Cpd. 26, 2′,2′-dichloro-2′-(methoxycarbonyl)-N-[3-[3-(2-cyclopropyl-6-trifluoromethylphenyl]5-isoxazoyl]phenyl] acetamide], the concentration for half-maximal inhibition (IC50) is ≤ 10 µM. For the compound `COC(=O)C(Cl)(Cl)C(=O)Nc1cccc(-c2cc(-c3c(Cl)cccc3OC)no2)c1` [Cpd. 27, 2′,2′-dichloro-2′-(methoxycarbonyl)-N-[3-[3-(2-chloro-6-methoxyphenyl]5-isoxazoyl]phenyl] acetamide], the IC50 is ≤ 10 µM. Regarding `COC(=O)C(Cl)(Cl)C(=O)Nc1cccc(-c2cc(-c3c(Cl)ccnc3N(C)C)no2)c1` [Cpd. 28], the IC50 was ≤ 10 µM.

As to `COC(=O)C(Cl)(Cl)C(=O)Nc1cccc(-c2cc(-c3ccccc3C(F)(F)F)no2)c1` [Cpd. 29, 2′,2′-dichloro-2′-(methoxycarbonyl)-N-[3-[3-(2-trifluoromethylphenyl)-5-isoxazoyl]phenyl] acetamide], the IC50 was ≤ 10 µM. `COC(=O)C(Cl)(Cl)C(=O)Nc1cccc(-c2cc(-c3c(F)cccc3C(F)(F)F)no2)c1` [Cpd. 30, 2′,2′-dichloro-2′-(methoxycarbonyl)-N-[3-[3-(2-fluoro-6-trifluoromethylphenyl)-5-isoxazoyl]phenyl] acetamide]: the IC50 is ≤ 10 µM. Still for that read-out and setting: the value for `COc1cccc(Cl)c1-c1cc(-c2cccc(N(Cc3oc(=O)oc3C)C(=O)C(Cl)Cl)c2)on1` [Cpd. 31, 2,2-dichloro-N-[3′-[3′-(2′-chloro-6′-methoxyphenyl)-5′-isoxazoyl]phenyl]-N-[(5-methyl-1,3-dioxolene-2-one-4-yl)methylene] acetamide] was ≤ 10 µM; that for `CC(C)c1oc(=O)oc1CN(C(=O)C(Cl)Cl)c1cccc(-c2cc(-c3c(Cl)cccc3Cl)no2)c1` [Cpd. 34, 2,2-dichloro-N-[3′-[3′-(2′,6′-dichlorophenyl)-5′-isoxazoyl]phenyl]-N-[(5-isopropyl-1,3-dioxolene-2-one4-yl)methylene] acetamide] was ≤ 10 µM; that for `CC(C)c1oc(=O)oc1CN(C(=O)C(Cl)Cl)c1cccc(-c2cc(-c3c(Cl)ccnc3N(C)C)no2)c1` [Cpd. 35] was ≤ 10 µM. `COc1cccc(Cl)c1-c1cc(-c2cccc(N(Cc3oc(=O)oc3C(C)C)C(=O)C(Cl)Cl)c2)on1` [Cpd. 37, 2,2-dichloro-N-[3′-[3′-(2′-chloro-6′-methoxyphenyl)-5′-isoxazoyl]phenyl]-N-[(5-isopropyl-1,3-dioxolene-2-one-4-yl)methylene] acetamide]: the IC50 is ≤ 10 µM.

With `CCCc1oc(=O)oc1CN(C(=O)C(Cl)Cl)c1cccc(-c2cc(-c3c(Cl)cccc3Cl)no2)c1` [Cpd. 38, 2,2-dichloro-N-[3′-[3′-(2′,6′-dichlorophenyl)-5′-isoxazoyl]phenyl]-N-[(5-n-propyl-1,3-dioxolene-2-one-4-yl)methylene] acetamide], the IC50 is ≤ 10 µM. Regarding `O=C(C(Cl)Cl)N(Cc1oc(=O)oc1C1CCCCC1)c1cccc(-c2cc(-c3c(Cl)cccc3Cl)no2)c1` [Cpd. 39, 2,2-dichloro-N-[3′-[3′-(2′,6′-dichlorophenyl)-5′-isoxazoyl]phenyl]-N-[(5-cyclohexyl-1,3-dioxolene-2-one4-yl)methylene] acetamide], the IC50 is ≤ 10 µM. As to `CCc1oc(=O)oc1CN(C(=O)C(Cl)Cl)c1cccc(-c2cc(-c3c(Cl)cccc3Cl)no2)c1` [Cpd. 40], the IC50 was ≤ 10 µM. Turning to `Cc1oc(=O)oc1CN(C(=O)C(Cl)Cl)c1ccnc(-c2cc(-c3c(Cl)cccc3Cl)no2)c1` [Cpd. 41, 2,2-dichloro-N-[2′-[3′-(2′,6′-dichlorophenyl)-5′-isoxazoyl](4-pyridyl)]-N-[(5-methyl-1,3-dioxolene-2-one4-yl)methylene] acetamide], the IC50 was ≤ 10 µM. With `CC(C)c1oc(=O)oc1CN(C(=O)C(Cl)Cl)c1ccnc(-c2cc(-c3c(Cl)cccc3Cl)no2)c1` [Cpd. 42, 2,2-dichloro-N-[2′-[3′-(2′,6′-dichlorophenyl)-5′-isoxazoyl](4-pyridyl)]N-[(5-i-propyl-1,3-dioxolene-2-one4-yl)methylene] acetamide], the IC50 is ≤ 10 µM.

For the compound `CCCCCc1oc(=O)oc1CN(C(=O)C(Cl)Cl)c1ccnc(-c2cc(-c3c(Cl)cccc3Cl)no2)c1` [Cpd. 43, 2,2-dichloro-N-[2′-[3′-(2′,6′-dichlorophenyl)-5′-isoxazoyl](4pyridyl)]N-[(5-n-pentyl-1,3-dioxolene-2-one4yl)methylene] acetamide], the IC50 is ≤ 10 µM.

For the compound `CCOC(=O)c1oc(=O)oc1CN(C(=O)C(Cl)Cl)c1cccc(-c2cc(-c3c(Cl)cccc3Cl)no2)c1` [Cpd. 44], the 50% inhibitory concentration (IC50) is > 10 µM. Consider `O=C(Nc1cccc(-c2cc(-c3c(Cl)cccc3Cl)no2)c1)C(Cl)(Cl)C(=O)N1CCOCC1` [Cpd. 50], for which the concentration for half-maximal inhibition (IC50) was ≤ 10 µM.

As for `CC(C)(C)OC(=O)C(Cl)(Cl)C(=O)Nc1ccnc(-c2cc(-c3c(Cl)cccc3Cl)no2)c1` [Cpd. 505], the IC50 is ≤ 10 µM. For `O=C(Nc1ccnc(-c2cc(-c3c(Cl)cccc3Cl)no2)c1)C(Cl)(Cl)C(=O)OC1CCCCC1` [compound 23], the IC50 is ≤ 10 µM. As to `O=C(Nc1cccc(-c2cc(-c3c(N4CCOCC4)ccnc3Cl)no2)c1)C(Cl)(Cl)C(=O)OC1CCCCC1` [compound 52], the IC50 is > 10 µM. On the same count and under the same terms, the value for `CCOC(=O)C(Cl)(Cl)C(=O)Nc1cccc(-c2cc(-c3c(N4CCOCC4)ccnc3Cl)no2)c1` [compound 54] was > 10 µM; that for `CC(C)(C)OC(=O)C(Cl)(Cl)C(=O)Nc1cccc(-c2cc(-c3c(N4CCOCC4)ccnc3Cl)no2)c1` [compound 56] was > 10 µM.

The same assay, now with this note: Table 15; read-out: Replicon (IC50).
For the compound `O=C(CCCN(C(=O)C(Cl)Cl)c1cccc(-c2cc(-c3c(Cl)cccc3Cl)no2)c1)c1ccccc1` [107a], the IC50 was ≤ 10 µM. For `O=C(CCN(C(=O)C(Cl)Cl)c1cccc(-c2cc(-c3c(Cl)cccc3Cl)no2)c1)c1ccc(Cl)cc1` [Cpd. 104a, 2′,2′-Dichloro-N-[3-[3-(2,6-dichlorophenyl)-5-isoxazolyl]phenyl]-N-[2-(4-chlorobenzoyl)ethyl] Acetamide], the IC50 was ≤ 10 µM.

The same assay, now with this note: Tables 3-12; 50% reduction in luciferase emission, 5-2 Luc replicon cells; read-out: Replicon (IC50).
On to “2′-chloro-2′-(diethoxyphosphonyl)-N-[3-[3-(2,6-dichlorophenyl)-5-isoxazoyl]phenyl] acetamide [Cpd. 1]”, for which the IC50 is > 10 µM. With `CCOP(=O)(OCC)C(Cl)(Cl)C(=O)Nc1cccc(-c2cc(-c3ccccc3C(F)(F)F)no2)c1` [Cpd. 5], the IC50 was ≤ 10 µM.

Usually IC50 stands for the point on the concentration scale where inhibition reaches its midpoint.
